Data: ChEMBL document CHEMBL1142387, “Synthetic homoserine lactone-derived sulfonylureas as inhibitors of Vibrio fischeri quorum sensing regulator” (Bioorg Med Chem, 2008)

The molecules below were run against T1, Transcriptional activator protein LuxR (Aliivibrio fischeri, UniProt P12746) (assay: Antagonist activity at LuxR in Vibrio fischeri assessed as inhibition of N-3-oxos-hexanoyl-L-homoserine lactone induced luminescence).
T1 sequence (P12746 whole entry): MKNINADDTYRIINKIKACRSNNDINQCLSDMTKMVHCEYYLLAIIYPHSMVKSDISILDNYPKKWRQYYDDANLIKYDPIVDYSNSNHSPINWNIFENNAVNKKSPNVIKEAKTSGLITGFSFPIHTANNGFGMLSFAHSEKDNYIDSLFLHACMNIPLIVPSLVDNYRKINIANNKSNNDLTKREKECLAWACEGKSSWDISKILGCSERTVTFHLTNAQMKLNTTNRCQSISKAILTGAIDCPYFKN
Format: functional

SMILES	IC50
O=C1OCCC1NS(=O)(=O)NCCCc1ccccc1 (stereo unspecified)	9.4 µM
CCCCNC(=O)NC1CCOC1=O (stereo unspecified)	5 µM
CCCCCCCCCCNS(=O)(=O)NC1CCOC1=O (stereo unspecified)	7.8 µM
O=C1OCCC1NS(=O)(=O)NCCc1ccccc1 (stereo unspecified)	13 µM
O=C1OCCC1NS(=O)(=O)NCCCCc1ccccc1 (stereo unspecified)	13 µM
CCCCCCCCNS(=O)(=O)NC1CCOC1=O (stereo unspecified)	7.2 µM

Further molecules by falling IC50, results first:

IC50	SMILES
6.4 µM	O=C1OCCC1NS(=O)(=O)NCc1ccccc1 (stereo unspecified)
5 µM	CCCCCCNS(=O)(=O)NC1CCOC1=O (stereo unspecified)
3.6 µM	CCCCNS(=O)(=O)NC1CCOC1=O (stereo unspecified)
3 µM	CCCCCS(=O)(=O)NC1CCOC1=O (stereo unspecified)
2 µM	CCCCCNS(=O)(=O)NC1CCOC1=O (stereo unspecified)
